ChEMBL document CHEMBL1151963 (J Med Chem, 2009)
pIC50: −log10 of the molar value. Blank lines part the entries; values can stand above or below the compound they belong to. Active and inactive are the calls of the source. The rule behind the calls is not given here.

Assays:
[1] = target: T1, Serine/threonine-protein kinase mTOR (Homo sapiens, UniProt P42345); assay: Inhibition of flag-tagged truncated human mTOR (1360-2549) expressed in HEK293 cells by DELFIA assay; format: cell-based
[2] = Metabolic stability in nude mouse microsomes assessed as half life at 1 uM by HPLC-MS/MS analysis; format: ADME, Microsome
LNCaP = assay: Cytotoxicity against human LNCAP cells after 3 days by MTS assay; format: functional, cell-based; settings: 72 h
[3] = target: Phosphatidylinositol 4,5-bisphosphate 3-kinase catalytic subunit alpha isoform (Homo sapiens, UniProt P42336); assay: Inhibition of PI3Kalpha expressed in Escherichia coli by microtiter plate-based fluorescence polarization assay
Mus musculus [4] = assay: Inhibition of mTOR complex 2 in BALB/c nu/nu mouse bearing PTEN-null human PC3MM2 xenograft tumor assessed as suppression of P-AKT phosphorylation at S473 at 50 mg/kg, ip administered as single dose for 4 to 6 hrs; format: functional, organism-based; set-up: dose 50 mg/kg
[5] = target: Ribosomal protein S6 kinase alpha-1 (Homo sapiens, UniProt Q15418); assay: Inhibition of RSK1 after 1 hr by mobility shift electrophoresis assay
[6] = target: Protein kinase C alpha type (Homo sapiens, UniProt P17252); assay: Inhibition of PKCalpha after 1 hr by mobility shift electrophoresis assay
[7] = target: Serine/threonine-protein kinase Chk1 (Homo sapiens, UniProt O14757); assay: Inhibition of CHK1 after 1 hr by mobility shift electrophoresis assay
[8] = target: Tyrosine-protein kinase ABL1 (Homo sapiens, UniProt P00519); assay: Inhibition of ABL1 after 1 hr by mobility shift electrophoresis assay
Aurora kinase B = Aurora kinase B (Homo sapiens, UniProt Q96GD4); assay: Inhibition of Aurora B after 1 hr by mobility shift electrophoresis assay
[9] = Inhibition of PKA after 1 hr by mobility shift electrophoresis assay
[10] = target: Tyrosine-protein kinase Lyn (Homo sapiens, UniProt P07948); assay: Inhibition of LYN after 1 hr by mobility shift electrophoresis assay
[11] = target: Cyclin-dependent kinase 1/cyclin B1 (Homo sapiens, UniProt P06493); assay: Inhibition of CDK1/cyclinB after 1 hr by mobility shift electrophoresis assay; format: protein-complex assay
[12] = target: T1, Serine/threonine-protein kinase mTOR; assay: Inhibition of mTOR complex 2 in human PC3MM2 cells assessed as suppression of P-AKT phosphorylation at S473 treated for 6 hrs by immunoblotting analysis; format: cell-based
[13] = target: Mitogen-activated protein kinase 14 (Homo sapiens, UniProt Q16539); assay: Inhibition of p38alpha after 1 hr by mobility shift electrophoresis assay
[14] = target: Tyrosine-protein kinase HCK (Homo sapiens, UniProt P08631); assay: Inhibition of HCK after 1 hr by mobility shift electrophoresis assay
[15] = target: Rho-associated protein kinase 1 (Homo sapiens, UniProt Q13464); assay: Inhibition of ROCK1 after 1 hr by mobility shift electrophoresis assay
[16] = Inhibition of PIKK assessed as blockade of VP16-induced phosphorylation of p53 at S15 at 3 umol/L
[17] = target: T1, Serine/threonine-protein kinase mTOR; assay: Inhibition of mTOR complex 2 in human U87MG cells assessed as suppression of AKT phosphorylation at S473 treated for 6 hrs by immunoblotting analysis; format: cell-based; settings: U-87MG ATCC
[18] = target: Inhibitor of nuclear factor kappa-B kinase subunit alpha (Homo sapiens, UniProt O15111); assay: Inhibition of IKKalpha after 1 hr by mobility shift electrophoresis assay
[19] = target: T1, Serine/threonine-protein kinase mTOR; assay: Inhibition of mTOR complex 1 in human PC3MM2 cells assessed as suppression of S6K phosphorylation at T389 treated for 6 hrs by immunoblotting analysis; format: cell-based
[20] = target: Cyclin-dependent kinase 2 (Homo sapiens, UniProt P24941); assay: Inhibition of CDK2/cyclinA after 1 hr by mobility shift electrophoresis assay
[21] = target: Vascular endothelial growth factor receptor 2 (Homo sapiens, UniProt P35968); assay: Inhibition of VEGFR2 after 1 hr by mobility shift electrophoresis assay
[22] = Antitumor activity against human U87MG cells xenografted in BALB/c nu/nu mouse at 50 mg/kg, ip administered once daily for 5 days measured on day 7 relative to control; format: functional, U-87MG ATCC; settings: route intraperitoneal
[23] = target: Mitogen-activated protein kinase 1 (Homo sapiens, UniProt P28482); assay: Inhibition of ERK2 after 1 hr by mobility shift electrophoresis assay
[24] = target: Tyrosine-protein kinase Fyn (Homo sapiens, UniProt P06241); assay: Inhibition of FYN after 1 hr by mobility shift electrophoresis assay
[25] = target: Protein kinase C beta type (Homo sapiens, UniProt P05771); assay: Inhibition of PKCbeta after 1 hr by mobility shift electrophoresis assay
[26] = target: Phosphatidylinositol 4,5-bisphosphate 3-kinase catalytic subunit gamma isoform (Homo sapiens, UniProt P48736); assay: Inhibition of PI3Kgamma
Mus musculus [27] = assay: Inhibition of mTOR complex 1 in BALB/c nu/nu mouse bearing PTEN-null human PC3MM2 xenograft tumor assessed as suppression of S6K phosphorylation at T389 at 50 mg/kg, ip administered as single dose for 6 hrs; format: functional, organism-based; set-up: dose 50 mg/kg
Mus musculus [28] = assay: Inhibition of PI3K in BALB/c nu/nu mouse bearing PTEN-null human PC3MM2 xenograft tumor assessed as suppression of AKT phosphorylation at T308 at 50 mg/kg, ip administered as single dose for 4 hrs; format: functional, organism-based; set-up: dose 50 mg/kg
[29] = target: T1, Serine/threonine-protein kinase mTOR; assay: Inhibition of mTOR complex 1 in human U87MG cells assessed as suppression of S6K phosphorylation at T389 treated for 6 hrs by immunoblotting analysis; format: cell-based; settings: U-87MG ATCC
[30] = Antitumor activity against human U87MG cells xenografted in BALB/c nu/nu mouse at 50 mg/kg, ip administered twice daily for 5 days measured on day 7 relative to control; format: functional, U-87MG ATCC; settings: route intraperitoneal
[31] = target: Platelet-derived growth factor receptor alpha (Homo sapiens, UniProt P16234); assay: Inhibition of PDGFRalpha after 1 hr by mobility shift electrophoresis assay
[32] = target: Casein kinase I isoform gamma-1 (Homo sapiens, UniProt Q9HCP0); assay: Inhibition of CK1gamma1 after 1 hr by mobility shift electrophoresis assay
[33] = Inhibition of PIKK assessed as blockade of VP16-induced phosphorylation of ChK1 at S345 at 3 umol/L
[34] = target: Proto-oncogene tyrosine-protein kinase Src (Homo sapiens, UniProt P12931); assay: Inhibition of SRC after 1 hr by mobility shift electrophoresis assay
[35] = target: RAC-alpha serine/threonine-protein kinase (Homo sapiens, UniProt P31749); assay: Inhibition of PKBalpha after 1 hr by mobility shift electrophoresis assay
[36] = target: MAP kinase-activated protein kinase 2 (Homo sapiens, UniProt P49137); assay: Inhibition of MK2 after 1 hr by mobility shift electrophoresis assay
[37] = target: Mitogen-activated protein kinase kinase kinase kinase 2 (Homo sapiens, UniProt Q12851); assay: Inhibition of GCK after 1 hr by mobility shift electrophoresis assay
Mus musculus [38] = assay: Inhibition of mTOR complex 2 in BALB/c nu/nu mouse bearing PTEN-null human PC3MM2 xenograft tumor assessed as suppression of AKT phosphorylation at S473 at 50 mg/kg, ip administered as single dose for 4 hrs; format: functional, organism-based; set-up: dose 50 mg/kg
Mus musculus [39] = assay: Inhibition of mTOR complex 1 in BALB/c nu/nu mouse bearing PTEN-null human PC3MM2 xenograft tumor assessed as suppression of S6K phosphorylation at T389 at 50 mg/kg, ip administered as single dose for 4 hrs; format: functional, organism-based; set-up: dose 50 mg/kg
[40] = Aqueous solubility at pH 3; format: physicochemical; settings: buffer

Sequence of Phosphatidylinositol 4,5-bisphosphate 3-kinase catalytic subunit alpha isoform (P42336 whole entry, canonical isoform): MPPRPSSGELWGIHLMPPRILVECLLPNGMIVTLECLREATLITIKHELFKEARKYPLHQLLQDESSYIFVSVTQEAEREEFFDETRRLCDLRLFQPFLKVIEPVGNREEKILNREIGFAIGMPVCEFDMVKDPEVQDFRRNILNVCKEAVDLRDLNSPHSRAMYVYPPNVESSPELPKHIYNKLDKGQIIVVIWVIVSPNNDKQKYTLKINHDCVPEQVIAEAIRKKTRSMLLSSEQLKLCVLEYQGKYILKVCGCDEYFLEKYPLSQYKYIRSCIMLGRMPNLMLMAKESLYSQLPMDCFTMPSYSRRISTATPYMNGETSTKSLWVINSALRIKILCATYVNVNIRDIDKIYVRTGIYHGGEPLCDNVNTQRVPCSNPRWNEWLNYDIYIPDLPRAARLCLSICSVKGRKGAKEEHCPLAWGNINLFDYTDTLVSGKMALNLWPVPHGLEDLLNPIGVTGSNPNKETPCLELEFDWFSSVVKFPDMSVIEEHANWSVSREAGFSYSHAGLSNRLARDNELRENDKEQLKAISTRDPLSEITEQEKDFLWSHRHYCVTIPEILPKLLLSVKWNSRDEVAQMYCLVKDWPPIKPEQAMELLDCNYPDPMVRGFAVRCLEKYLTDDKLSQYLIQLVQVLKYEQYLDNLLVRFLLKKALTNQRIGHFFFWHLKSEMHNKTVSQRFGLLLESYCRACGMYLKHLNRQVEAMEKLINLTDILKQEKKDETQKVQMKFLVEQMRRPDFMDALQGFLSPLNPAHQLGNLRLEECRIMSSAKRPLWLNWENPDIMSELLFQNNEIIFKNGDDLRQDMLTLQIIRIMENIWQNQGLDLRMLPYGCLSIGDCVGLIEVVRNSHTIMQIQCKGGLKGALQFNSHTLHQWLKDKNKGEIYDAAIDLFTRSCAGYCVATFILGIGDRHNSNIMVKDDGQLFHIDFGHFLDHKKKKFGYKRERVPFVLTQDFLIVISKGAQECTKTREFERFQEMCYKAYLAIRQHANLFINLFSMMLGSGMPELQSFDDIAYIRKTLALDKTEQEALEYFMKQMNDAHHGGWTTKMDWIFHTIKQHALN
Sequence of Proto-oncogene tyrosine-protein kinase Src (P12931 2-536 limits assumed): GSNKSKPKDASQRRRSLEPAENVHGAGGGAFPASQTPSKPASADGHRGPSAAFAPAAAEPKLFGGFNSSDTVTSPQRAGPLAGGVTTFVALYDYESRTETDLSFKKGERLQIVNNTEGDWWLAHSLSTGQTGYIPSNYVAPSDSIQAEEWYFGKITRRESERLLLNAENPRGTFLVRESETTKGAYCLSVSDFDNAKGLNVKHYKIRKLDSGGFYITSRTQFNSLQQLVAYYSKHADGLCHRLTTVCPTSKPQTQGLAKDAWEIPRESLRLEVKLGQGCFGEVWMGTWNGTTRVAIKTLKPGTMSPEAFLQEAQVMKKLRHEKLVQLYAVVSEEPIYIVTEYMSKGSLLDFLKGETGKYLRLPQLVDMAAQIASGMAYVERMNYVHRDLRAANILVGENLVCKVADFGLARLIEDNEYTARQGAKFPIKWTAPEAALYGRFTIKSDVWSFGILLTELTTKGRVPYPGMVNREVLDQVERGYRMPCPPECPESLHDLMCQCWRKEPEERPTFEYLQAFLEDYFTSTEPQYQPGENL
Sequence of Rho-associated protein kinase 1 (Q13464 whole entry): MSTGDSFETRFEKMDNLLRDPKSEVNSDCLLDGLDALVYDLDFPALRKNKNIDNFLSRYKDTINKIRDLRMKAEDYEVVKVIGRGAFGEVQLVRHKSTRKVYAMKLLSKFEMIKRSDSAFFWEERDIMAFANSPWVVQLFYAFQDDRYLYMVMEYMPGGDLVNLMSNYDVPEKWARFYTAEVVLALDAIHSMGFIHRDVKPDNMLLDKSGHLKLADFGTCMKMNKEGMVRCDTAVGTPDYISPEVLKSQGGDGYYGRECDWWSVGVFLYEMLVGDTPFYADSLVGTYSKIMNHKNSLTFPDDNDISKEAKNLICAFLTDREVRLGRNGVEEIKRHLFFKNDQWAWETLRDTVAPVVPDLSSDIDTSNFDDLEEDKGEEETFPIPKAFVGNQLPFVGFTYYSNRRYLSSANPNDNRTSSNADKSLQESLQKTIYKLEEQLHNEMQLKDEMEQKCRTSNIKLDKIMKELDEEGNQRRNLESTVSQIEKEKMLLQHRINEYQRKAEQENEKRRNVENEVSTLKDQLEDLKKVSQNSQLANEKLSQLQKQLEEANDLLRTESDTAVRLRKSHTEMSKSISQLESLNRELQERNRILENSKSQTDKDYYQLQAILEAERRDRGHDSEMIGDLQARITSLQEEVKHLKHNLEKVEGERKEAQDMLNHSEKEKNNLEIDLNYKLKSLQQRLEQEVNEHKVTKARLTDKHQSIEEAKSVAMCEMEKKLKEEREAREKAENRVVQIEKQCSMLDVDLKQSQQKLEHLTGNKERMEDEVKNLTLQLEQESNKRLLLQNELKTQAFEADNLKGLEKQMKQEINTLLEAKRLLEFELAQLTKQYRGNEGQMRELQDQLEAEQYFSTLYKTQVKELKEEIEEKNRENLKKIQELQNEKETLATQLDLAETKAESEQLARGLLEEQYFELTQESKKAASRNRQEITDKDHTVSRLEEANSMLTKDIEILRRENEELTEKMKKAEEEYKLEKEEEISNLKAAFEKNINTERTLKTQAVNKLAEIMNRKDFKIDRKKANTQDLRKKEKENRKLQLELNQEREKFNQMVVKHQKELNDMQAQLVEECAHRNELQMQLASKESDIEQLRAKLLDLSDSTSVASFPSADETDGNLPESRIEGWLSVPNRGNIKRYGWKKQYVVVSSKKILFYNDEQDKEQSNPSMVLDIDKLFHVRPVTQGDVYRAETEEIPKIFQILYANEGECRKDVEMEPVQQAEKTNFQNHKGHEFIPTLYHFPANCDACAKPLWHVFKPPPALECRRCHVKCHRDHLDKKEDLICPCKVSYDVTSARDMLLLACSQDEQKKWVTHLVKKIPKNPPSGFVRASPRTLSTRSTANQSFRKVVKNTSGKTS
Sequence of Protein kinase C beta type (P05771 whole entry, canonical isoform): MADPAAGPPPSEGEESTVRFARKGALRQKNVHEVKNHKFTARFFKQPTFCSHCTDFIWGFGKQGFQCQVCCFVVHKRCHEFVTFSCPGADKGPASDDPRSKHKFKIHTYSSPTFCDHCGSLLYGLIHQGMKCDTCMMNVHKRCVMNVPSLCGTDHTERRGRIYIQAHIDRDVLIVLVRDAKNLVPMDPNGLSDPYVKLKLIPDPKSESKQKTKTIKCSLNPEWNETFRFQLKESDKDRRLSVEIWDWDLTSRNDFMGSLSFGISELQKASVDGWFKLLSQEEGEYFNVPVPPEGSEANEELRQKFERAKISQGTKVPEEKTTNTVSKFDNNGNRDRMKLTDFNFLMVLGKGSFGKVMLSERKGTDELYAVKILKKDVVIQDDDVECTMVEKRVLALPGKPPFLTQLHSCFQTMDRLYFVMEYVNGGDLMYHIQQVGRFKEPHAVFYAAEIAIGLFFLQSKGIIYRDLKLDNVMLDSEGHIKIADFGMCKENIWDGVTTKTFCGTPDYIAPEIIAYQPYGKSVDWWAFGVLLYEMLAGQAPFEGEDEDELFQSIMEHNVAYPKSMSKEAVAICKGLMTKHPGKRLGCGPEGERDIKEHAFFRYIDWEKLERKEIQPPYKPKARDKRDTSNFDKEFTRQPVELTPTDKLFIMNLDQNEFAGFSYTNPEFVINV
Sequence of Tyrosine-protein kinase Fyn (P06241 whole entry): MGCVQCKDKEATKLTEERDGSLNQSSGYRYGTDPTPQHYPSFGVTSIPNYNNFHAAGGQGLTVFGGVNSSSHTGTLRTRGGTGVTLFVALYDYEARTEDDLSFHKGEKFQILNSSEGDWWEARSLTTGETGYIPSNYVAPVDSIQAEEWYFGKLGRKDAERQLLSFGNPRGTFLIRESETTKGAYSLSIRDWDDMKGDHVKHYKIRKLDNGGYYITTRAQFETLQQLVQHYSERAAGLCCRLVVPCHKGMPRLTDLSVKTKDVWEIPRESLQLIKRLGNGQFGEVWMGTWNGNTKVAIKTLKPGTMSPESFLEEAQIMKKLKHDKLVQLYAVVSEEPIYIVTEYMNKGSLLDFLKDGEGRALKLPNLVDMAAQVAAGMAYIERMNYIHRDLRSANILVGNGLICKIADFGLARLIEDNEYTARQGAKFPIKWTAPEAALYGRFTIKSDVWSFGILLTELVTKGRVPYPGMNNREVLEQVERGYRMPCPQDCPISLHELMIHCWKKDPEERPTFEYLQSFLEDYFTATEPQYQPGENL
Sequence of Inhibitor of nuclear factor kappa-B kinase subunit alpha (O15111 whole entry): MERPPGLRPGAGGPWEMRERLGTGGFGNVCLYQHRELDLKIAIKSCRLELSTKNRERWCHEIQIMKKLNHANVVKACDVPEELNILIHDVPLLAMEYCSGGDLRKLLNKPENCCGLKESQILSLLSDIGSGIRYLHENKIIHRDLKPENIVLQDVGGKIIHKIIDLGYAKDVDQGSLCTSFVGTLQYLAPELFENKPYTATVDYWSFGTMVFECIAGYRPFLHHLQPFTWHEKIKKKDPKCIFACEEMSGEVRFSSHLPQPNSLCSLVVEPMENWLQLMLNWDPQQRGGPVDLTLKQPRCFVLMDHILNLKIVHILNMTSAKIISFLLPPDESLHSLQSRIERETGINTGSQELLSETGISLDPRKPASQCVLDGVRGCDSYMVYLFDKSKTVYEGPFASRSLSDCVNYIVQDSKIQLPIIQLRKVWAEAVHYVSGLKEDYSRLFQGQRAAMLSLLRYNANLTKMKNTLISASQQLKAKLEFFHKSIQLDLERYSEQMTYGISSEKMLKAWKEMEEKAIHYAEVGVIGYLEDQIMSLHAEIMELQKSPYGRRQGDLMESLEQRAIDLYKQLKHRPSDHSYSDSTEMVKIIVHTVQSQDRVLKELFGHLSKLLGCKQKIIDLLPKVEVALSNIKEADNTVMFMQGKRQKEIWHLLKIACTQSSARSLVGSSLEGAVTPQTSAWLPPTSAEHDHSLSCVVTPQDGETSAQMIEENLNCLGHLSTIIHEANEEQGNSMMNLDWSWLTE

pIC50 [1]: 7.66
half-life at 1 µM [2]: 2 min
Structure (SMILES): CNC(=O)Nc1ccc(-c2nc(N3CCOCC3)c3cnn(C4CCN(C)CC4)c3n2)cc1
pIC50 (LNCaP): 6.13

pIC50 [1]: 8.15
half-life at 1 µM [2]: 12 min
Structure (SMILES): CC(=O)Nc1ccc(-c2nc(N3CCOCC3)c3cnn(C4CCN(Cc5cccnc5)CC4)c3n2)cc1
pIC50 (LNCaP): 7.18

pIC50 [1]: 9.70
pIC50 [3]: 7.46
half-life at 1 µM [2]: 24 min
Structure (SMILES): COC(=O)N1CCC(n2ncc3c(N4CCOCC4)nc(-c4ccc(NC(=O)Nc5cccnc5)cc4)nc32)CC1
pIC50 (LNCaP): 7.51

half-life at 1 µM [2]: 3 min
Structure (SMILES): CNC(=O)Nc1ccc(-c2nc(N3CCOCC3)c3cnn(C4CCN(Cc5ccccc5)CC4)c3n2)cc1

half-life at 1 µM [2]: 14 min
Structure (SMILES): COC(=O)Nc1ccc(-c2nc(N3CCOCC3)c3cnn(C4CCN(Cc5cccnc5)CC4)c3n2)cc1

pIC50 [1]: 8.37
pIC50 [5]: < 4.30
pIC50 [6]: < 4.30
pIC50 [7]: < 4.30
pIC50 [8]: < 4.30
pIC50 (Aurora kinase B): < 4.30
pIC50 [3]: 5.99
pIC50 [9]: < 4.30
half-life at 1 µM [2]: > 30 min
pIC50 [10]: < 4.30
pIC50 [11]: < 4.30
Activity [12]: Dose-dependent effect
pIC50 [13]: < 4.30
pIC50 [14]: < 4.30
pIC50 [15]: < 4.30
Activity [16]: inactive
Activity [17]: Dose-dependent effect
pIC50 [18]: < 4.30
pIC50 [20]: < 4.30
pIC50 [21]: < 4.30
pIC50 [23]: < 4.30
pIC50 [24]: < 4.30
pIC50 [25]: < 4.30
pIC50 [26]: 5.20
pIC50 [31]: < 4.30
pIC50 [32]: < 4.30
Activity [33]: inactive
pIC50 [34]: < 4.30
pIC50 [35]: < 4.30
pIC50 [36]: < 4.30
pIC50 [37]: < 4.30
Structure (SMILES): COC(=O)Nc1ccc(-c2nc(N3CCOCC3)c3cnn(C4CCN(C(=O)OC)CC4)c3n2)cc1
Activity (Mus musculus [4]): Active
pIC50 (LNCaP): 6.45
Activity [19]: Dose-dependent effect
T/C [22]: 0.62
Activity (Mus musculus [27]): Active
Activity (Mus musculus [28]): inactive
Activity [29]: Dose-dependent effect
T/C [30]: 0.14

Structure (SMILES): CNC(=O)Nc1ccc(-c2nc(N3CCOCC3)c3cnn(C4CCN(C(=O)OC)CC4)c3n2)cc1
Activity (Mus musculus [38]): Active
T/C [22]: 0.57
Activity (Mus musculus [39]): Active
Activity (Mus musculus [28]): inactive

pIC50 ([1]; hek293): 8.70
Structure (SMILES): CNC(=O)Nc1ccc(-c2nc(N3CCOCC3)c3cnn(C4CCN(C(=O)NC)CC4)c3n2)cc1
pIC50 (LNCaP): 5.59

pIC50 [1]: 9.00
half-life at 1 µM [2]: > 30 min
Structure (SMILES): COC(=O)N1CCC(n2ncc3c(N4CCOCC4)nc(-c4ccc(NC(=O)OCCO)cc4)nc32)CC1
pIC50 (LNCaP): 7.55

pIC50 [1]: 9.08
pIC50 [3]: 6.26
half-life at 1 µM [2]: 22 min
Structure (SMILES): O=C(Nc1ccncc1)Nc1ccc(-c2nc(N3CCOCC3)c3cnn(C4CCN(C(=O)c5cccnc5)CC4)c3n2)cc1
pIC50 (LNCaP): 6.82

half-life at 1 µM [2]: 12 min
Structure (SMILES): CNC(=O)Nc1ccc(-c2nc(N3CCOCC3)c3cnn(C4CCN(Cc5cccnc5)CC4)c3n2)cc1

pIC50 [1]: 5.61
Structure (SMILES): CC(=O)Nc1cccc(-c2nc(N3CCOCC3)c3cnn(C4CCN(Cc5ccccc5)CC4)c3n2)c1

half-life at 1 µM [2]: 6 min
Structure (SMILES): O=C(Nc1ccc(-c2nc(N3CCOCC3)c3cnn(C4CCN(Cc5cccnc5)CC4)c3n2)cc1)OCCO

solubility [40]: > 100 µg/mL
Structure (SMILES): COC(=O)N1CCC(n2ncc3c(N4CCOCC4)nc(-c4ccc(NC(=O)Nc5ccc(N6CCN(C)CC6)cc5)cc4)nc32)CC1

pIC50 [1]: 8.96
half-life at 1 µM [2]: > 30 min
Structure (SMILES): CNC(=O)Nc1ccc(-c2nc(N3CCOCC3)c3cnn(C4CCN(C(=O)N(C)C)CC4)c3n2)cc1
pIC50 (LNCaP): 6.71

pIC50 [1]: 7.34
pIC50 [3]: 6.20
Structure (SMILES): CCOC(=O)Nc1ccc(-c2nc(N3CCOCC3)c3cnn(C4CCN(Cc5ccccc5)CC4)c3n2)cc1
pIC50 (LNCaP): 5.47

pIC50 [1]: 8.85
half-life at 1 µM [2]: > 30 min
Structure (SMILES): CNC(=O)Nc1ccc(-c2nc(N3CCOCC3)c3cnn(C4CCNCC4)c3n2)cc1
pIC50 (LNCaP): 5.86

pIC50 ([1]; hek293): 10.10
pIC50 [3]: 8.22
half-life at 1 µM [2]: 13 min
Structure (SMILES): COC(=O)N1CCC(n2ncc3c(N4CCOCC4)nc(-c4ccc(NC(=O)Nc5ccc(CO)cc5)cc4)nc32)CC1
pIC50 (LNCaP): > 9.00

pIC50 [1]: 9.49
half-life at 1 µM [2]: > 30 min
Structure (SMILES): CCNC(=O)Nc1ccc(-c2nc(N3CCOCC3)c3cnn(C4CCN(C(=O)OC)CC4)c3n2)cc1
pIC50 (LNCaP): 7.26

pIC50 ([1]; hek293): 8.68
half-life at 1 µM [2]: 27 min
Structure (SMILES): CNC(=O)Nc1ccc(-c2nc(N3CCOCC3)c3cnn(C4CCN(C(C)=O)CC4)c3n2)cc1
pIC50 (LNCaP): 6.09

pIC50 ([1]; hek293): 9.52
pIC50 [3]: 7.74
half-life at 1 µM [2]: 9 min
Structure (SMILES): COC(=O)N1CCC(n2ncc3c(N4CCOCC4)nc(-c4ccc(NC(=O)Nc5ccncc5)cc4)nc32)CC1
pIC50 (LNCaP): 7.22

pIC50 [1]: 8.02
half-life at 1 µM [2]: 5 min
Structure (SMILES): Oc1cccc(-c2nc(N3CCOCC3)c3cnn(C4CCN(Cc5cccnc5)CC4)c3n2)c1
pIC50 (LNCaP): 7.28
